According to US11191758B2, “Use of selective serotonin 5-HT1A receptor agonists for treating side-effects of VMAT inhibitors” (Neurolixis, priority 2017, dated 2021):
Entries after “also recorded” stand apart in the source; their conditions may differ. Where two headings read alike, the source gives them in different places.

Legend:
[1] = cited from earlier work
[2] = molecular target: T1, serotonin 5-HT1A receptors (Rattus norvegicus, UniProt P19327); assay: [35S]GTPγS binding G-protein activation assay, rat hippocampal membranes; format: biochemical; details: for Emax: read-out: Emax, stimulation of [35S]GTPγS binding relative to 5-HT
T1 construct: Hippocampi were dissected and homogenized in 20 volumes of buffer A; from tissue; host or cells: rat hippocampus membranes (male Sprague-Dawley)
T1 sequence (P19327 1-422): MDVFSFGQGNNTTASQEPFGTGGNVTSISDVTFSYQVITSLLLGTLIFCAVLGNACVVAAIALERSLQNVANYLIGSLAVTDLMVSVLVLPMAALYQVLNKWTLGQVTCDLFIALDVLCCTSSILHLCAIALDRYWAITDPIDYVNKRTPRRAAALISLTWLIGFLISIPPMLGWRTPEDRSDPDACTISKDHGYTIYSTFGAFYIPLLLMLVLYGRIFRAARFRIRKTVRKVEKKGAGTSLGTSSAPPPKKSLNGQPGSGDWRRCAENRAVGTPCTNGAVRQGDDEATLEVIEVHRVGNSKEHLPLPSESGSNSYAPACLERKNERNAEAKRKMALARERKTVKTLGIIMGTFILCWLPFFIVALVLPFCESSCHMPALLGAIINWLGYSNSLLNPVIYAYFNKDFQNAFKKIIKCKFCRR
Description: Agonist efficacy for stimulation of G-protein activation at serotonin 5-HT1A receptors can be determined by [^35S]GTPγS binding assays as follows. Experiments employed brains of male Sprague-Dawley rats which were stored at −70° C. before use in binding assays. Experiments were carried out in triplicate and repeated at least three times. Frozen brains were thawed in ice-cold buffer A (50 mM Hepes containing 150 mM NaCl, 0.2 mM EDTA, 1 mM GTP, 10 μM pargyline; pH 7.4, 23° C.). Hippocampi were dissected and homogenized in 20 volumes of buffer A before incubation at 37° C. for 10 min to dissociate endogenous neurotransmitters from receptors. The homogenate was centrifuged at 20 000 g for 15 min, at 4° C. The pellet was re-suspended in buffer A and recentrifuged as before. The pellet was then re-suspended in buffer B (50 mM Hepes containing 150 mM NaCl, 0.2 mM EDTA, 5 mM MgCl2, 100 μM GDP, 10 μM pargyline), centrifuged as before and re-suspended in buffer B. Membranes were incubated in buffer B with test compounds and 0.1 nM [^35S]GTPγS for 60 min at 37° C. The incubation was terminated by rapid filtration through Whatman GF-B fiber filters using a Brandel harvester. Radioactivity retained on the filters was measured by liquid scintillation counting. Data were analyzed using a nonlinear curve-fitting program (Prism, Graphpad Software, San Diego, Calif., USA), and are expressed as mean value±S.E.M.
It should be noted that 5-HT can activate different 5-HT receptors. Herein, only the proportion of 5-HT's effect which is 5-HT1A receptor-dependent was considered in the calculations.

[3] = system: TBZ-treated rats (catalepsy); assay: Cross-legged position (CLP) catalepsy test, TBZ-induced catalepsy; format: in vivo, rat; details: TBZ 2 mg/kg i.p.
Description: Animals were obtained, housed and handled according to the same protocols described for Example 3. Similarly, drugs were prepared and administered according to the same protocols described for Example 3. All compounds were tested at the dose of 0.63 mg/kg.
Catalepsy induction in rats is a recognized model of Parkinsonism (Duty, S., 2011 Br J Pharmacol. 164, 1357-91). Here, catalepsy was measured using the cross-legged position test (CLP test) according to the method described by (Prinssen, E. P., et al., 1998 Eur J Pharmacol. 356, 189-92). Serotonin 5-HT1A receptor agonists were administered to rats (at least 6 per group) by oral administration (p.o.) 55 minutes before the CLP test, TBZ (2 mg/kg) was administered to rats by intraperitoneal (i.p.) route 30 min before testing. In the CLP test, the hind-limbs were placed over the ipsilateral forelimbs and the time during which an animal remained in this position was determined up to maximum of 30 seconds. The test was repeated three times (inter-trial time: 3 minutes) and the mean of the three trials was used for analysis. Animals were put back in their home cage after each set of tests.

[4] = system: patients with chorea associated with HD; details: cited from earlier work
[5] = system: TBZ-treated rats (immobility, depression behavior); assay: Forced Swim Test, 5-HT1A receptor agonists in TBZ-treated rats; format: in vivo, rat; details: TBZ […] i.p.
Description: The experiments were performed on male Wistar rats (170-200 g) obtained from an accredited animal facility at the Jagiellonian University Medical College, Poland. The animals were housed in group of four in controlled environment (ambient temperature […]; relative humidity 55%±10%; 12-h light/dark cycles (lights on at 8:00). Standard laboratory food (LSM-B) and filtered water were freely available. Animals were assigned randomly to treatment groups. All the experiments were performed by two observers unaware of the treatment applied between 9:00 and 14:00 on separate groups of animals. All animals were used only once. All the experimental procedures complied with the European Communities Council Directive of 24 Nov. 1986 (86/609/EEC) and were in accordance with the 1996 NIH Guide for the Care and Use of Laboratory Animals.
Tetrabenazine (TBZ) was dissolved in a vehicle solution of 0.9% saline and dimethylsulfoxide (DMSO) (20%). 10-μl hydrochloric acid (HCl) was then added to achieve full solubilization of the drug. TBZ (1.5 mg/kg) was administered intraperitoneally (i.p.).
All compounds were given in a volume of 2 ml/kg. […]
The experiment was carried out according to a well-characterized method (Porsolt, R. D., et al., 1978 Eur J Pharmacol 47, 379-91). On the first day of an experiment, the animals (at least n=6 per group) were gently individually placed in Plexiglas cylinders (40 cm high, 18 cm in diameter) containing water (17 cm deep) maintained at 23-25° C. for 15 min. On removal from water, the rats were placed for 30 min in a Plexiglas box under a 60 W incandescent filament bulb to dry. On the following day (24 h later), TBZ (1.5 mg/kg) was administered to rats by intraperitoneal (i.p.) route 90 min before testing. Serotonin 5-HT1A receptor agonists were then administered to rats by oral administration (p.o.) 60 minutes before the rats were re-placed in the cylinder and the total duration of their immobility was recorded during the 5-min test period. The swimming behavior entailed active swimming motions, e.g., moving horizontally around in the cylinder, and immobility was assigned when no additional activity was observed other than that necessary to keep the rat's head above the water.

[6] = molecular target: other 5-HT, dopaminergic, adrenergic receptors; details: cited from earlier work
[7] = agonist 10 μM, % of stimulation by 5-HT 10 μM (5-HT1A-dependent part)
[8] = 0.63 mg/kg p.o. ((±)8-OH-DPAT s.c.)

For CCCN(CCC)C1CCc2cccc(O)c2C1 (racemic) [(±)8-OH-DPAT, (±)8-hydroxy-2-(di-n-propylamino)tetralin], the oral bioavailability [1] is given as “poorly bioavailable by oral route”, the “Emax, stimulation of [35S]GTPγS binding relative to 5-HT” value [2, 7] is given as “intermediate between that of buspirone and the other compounds; also recorded: intermediate efficacy” and the “effect on TBZ-induced CLP catalepsy duration” value [3, 8] is given as “almost no CLP catalepsy; also recorded: significantly decreased durations of immobility”.
For COc1cc2c(cc1OC)[C@@H]1CC(=O)[C@@H](CC(C)C)CN1CC2 (racemic) [TBZ, (SS,RR)-3-Isobutyl-9,10-dimethoxy-1,3,4,6,7,11b-hexahydro-pyrido[2,1-a]isoquinolin-2-one], the “patients with symptoms suggestive of Parkinsonism” value (“patients with symptoms suggestive” for short) ([4]; 12-week double-blind, placebo-controlled study, placebo 0%) is given as 15%, the “patients with symptoms suggestive” value ([4]; 48-week open-label study) is given as 10% and the “patients with symptoms suggestive” value ([4]; 80-week open-label study) is given as 3%.
For NCCc1c[nH]c2ccc(O)cc12 [5-HT, 5-hydroxytryptamine], the “share of 5-HT-induced [35S]GTPγS binding mediated by 5-HT1A receptors” value ([2]; from WAY100635 (1 μM) co-incubation) was 85%.
For Cc1ccc(CNCC2(F)CCN(C(=O)c3ccc(F)c(Cl)c3)CC2)nc1 [befiradol, (3-Chloro-4-fluoro-phenyl)-[4-fluoro-4-{[(5-methyl-pyridin-2-ylmethyl)-amino]-methyl}piperidin-1-yl]methanone], the “effect on immobility duration in TBZ-treated rats” value (from here on “effect on immobility duration”) [5, 8] was “significantly decreased durations of immobility”, the “effect on immobility duration” value ([5]; 0.63 mg/kg p.o. ((±)8-OH-DPAT s.c.), listed as Befiradol) was “significantly reduced immobility times” and the Emax [2] was greater than 90%. The “pKi at other 5-HT, dopaminergic, adrenergic receptors” value [6] was “less than 6” and the “effect on TBZ-induced CLP catalepsy duration” value [3, 8] was “almost no CLP catalepsy; also recorded: significantly decreased durations of immobility”.
For O=C1CC2(CCCC2)CC(=O)N1CCCCN1CCN(c2ncccn2)CC1 [buspirone], the “effect on immobility duration” value ([5]; buspirone 0.63 or 2.5 mg/kg p.o.) was “did not reduce immobility”, the “effect on immobility duration” value ([5]; buspirone 0.63 or 2.5 mg/kg p.o., listed as Buspirone) was “did not reduce immobility duration significantly” and the Emax [2, 7] was roughly 50%. The “effect on TBZ-induced CLP catalepsy duration” value ([3]; buspirone 0.63, 2.5 or 5 mg/kg) was “does not diminish TBZ-induced catalepsy behavior; also recorded: None of the doses of buspirone showed durations of catalepsy that differed significantly”.
In the case of Cc1cnc(CNCC2(F)CCN(C(=O)c3ccc(F)c(Cl)c3)CC2)nc1 [derivative 1a, 3-chloro-4-fluorophenyl-[4-fluoro-4-[[(5-methylpyrimidin-2-ylmethyl)amino]methyl]piperidin-1-yl]methanone], the Emax [2] is reported as greater than 90% and the “effect on TBZ-induced CLP catalepsy duration” value [3, 8] is reported as “almost no CLP catalepsy; also recorded: significantly decreased durations of catalepsy”.
